Assay results reported in patent US12077503B2, “Substituted cyclic amides and their use as herbicides” (FMC CORPORATION, priority 2015, dated 2024).

Key:
Assay type in all cases: in vivo
[1] = tested on: giant foxtail (Setaria faberii); assay: Test A postemergence; settings: Setaria faberi, post-emergence, 240 h, Postemergence, read-out: Foxtail, Giant plant response rating (0 to 100 scale)
Method in brief: (§1)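 Treatment is preemergence as a directed soil spray after planting, or postemergence at the one- to two-leaf stage, with test chemical in a non-phytotoxic solvent mixture plus surfactant. Plants stay in the greenhouse about 10 d before visual injury scoring on a 0 to 100 scale versus untreated controls.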

[2] = tested on: blackgrass (Alopecurus myosuroides); assay: Test A postemergence; settings: Alopecurus myosuroides, post-emergence, 240 h, Postemergence, read-out: Blackgrass plant response rating (0 to 100 scale)
Method in brief: as §1

[3] = tested on: barnyardgrass (Echinochloa crus-galli); assay: Test A postemergence; settings: Echinochloa crus-galli, post-emergence, 240 h, Postemergence
Method in brief: as §1

[4] = tested on: Kochia (Kochia scoparia); assay: Test A postemergence; settings: Bassia scoparia, post-emergence, 240 h, Postemergence, read-out: Kochia plant response rating (0 to 100 scale)
Method in brief: as §1

[5] = tested on: corn (Zea mays); assay: Test A postemergence; settings: Zea mays, post-emergence, 240 h, Postemergence, read-out: Corn plant response rating (0 to 100 scale)
Method in brief: as §1

[6] = tested on: pigweed (Amaranthus retroflexus); assay: Test A postemergence; settings: Amaranthus retroflexus, post-emergence, 240 h, Postemergence, read-out: Pigweed plant response rating (0 to 100 scale)
Method in brief: as §1

[7] = tested on: Galium (catchweed bedstraw, Galium aparine); assay: Test A postemergence; settings: Galium, post-emergence, 240 h, Postemergence, read-out: Galium plant response rating (0 to 100 scale)
Method in brief: as §1

[8] = tested on: ragweed (common ragweed, Ambrosia elatior); assay: Test A postemergence; settings: Ambrosia artemisiifolia, post-emergence, 240 h, Postemergence, read-out: Ragweed plant response rating (0 to 100 scale)
Method in brief: as §1

[9] = tested on: wheat (Triticum aestivum); assay: Test A postemergence; settings: Triticum aestivum, post-emergence, 240 h, Postemergence, read-out: Wheat plant response rating (0 to 100 scale)
Method in brief: as §1

[10] = tested on: ryegrass, Italian (Italian ryegrass, Lolium multiflorum); assay: Test A postemergence; settings: Lolium multiflorum, post-emergence, 240 h, Postemergence, read-out: Ryegrass, Italian plant response rating (0 to 100 scale)
Method in brief: as §1

[11] = tested on: giant foxtail (Setaria faberii); assay: Test A preemergence; settings: Setaria faberi, pre-emergence, 240 h, Preemergence
Method in brief: as §1

[12] = tested on: barnyardgrass (Echinochloa crus-galli); assay: Test A preemergence; settings: Echinochloa crus-galli, pre-emergence, 240 h, Preemergence
Method in brief: as §1

[13] = tested on: Kochia (Kochia scoparia); assay: Test A preemergence; settings: Bassia scoparia, pre-emergence, 240 h, Preemergence
Method in brief: as §1

[14] = tested on: pigweed (Amaranthus retroflexus); assay: Test A preemergence; settings: Amaranthus retroflexus, pre-emergence, 240 h, Preemergence
[15] = tested on: ragweed (common ragweed, Ambrosia elatior); assay: Test A preemergence; settings: Ambrosia artemisiifolia, pre-emergence, 240 h, Preemergence
Method in brief: as §1

[16] = tested on: ryegrass, Italian (Italian ryegrass, Lolium multiflorum); assay: Test A preemergence; settings: Lolium multiflorum, pre-emergence, 240 h, Preemergence
Method in brief: as §1

[17] = tested on: barnyardgrass (Echinochloa crus-galli); assay: Test B flooded paddy test; settings: Echinochloa crus-galli, 360 h, Flood, 250 g ai/ha; visually evaluated after 13 to 15 d; read-out: Plant response rating, Barnyardgrass (0 to 100 scale where 0 is no effect and 100 is complete control)
Method in brief: (§2)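 Compound goes directly into floodwater once pots are flooded 3 cm above soil, targeting plants at two leaves; the water depth is then held for the test duration. Plants sit 13–15 d in a greenhouse and are rated visually, 100 denoting complete control.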

[18] = tested on: ducksalad (Heteranthera limosa); assay: Test B flooded paddy test; settings: Heteranthera limosa, 360 h, Flood, 250 g ai/ha; visually evaluated after 13 to 15 d; read-out: Plant response rating, Ducksalad (0 to 100 scale where 0 is no effect and 100 is complete control)
Method in brief: as §2

[19] = tested on: rice (Oryra sativa); assay: Test B flooded paddy test; settings: Oryza sativa, 360 h, Flood, 250 g ai/ha; visually evaluated after 13 to 15 d; read-out: Plant response rating, Rice (0 to 100 scale where 0 is no effect and 100 is complete control)
Method in brief: as §2

[20] = tested on: sedge, umbrella (small-flower umbrella sedge, Cyperus difformis); assay: Test B flooded paddy test; settings: Cyperus difformis, 360 h, Flood, 250 g ai/ha; visually evaluated after 13 to 15 d; read-out: Plant response rating, Sedge, Umbrella (0 to 100 scale where 0 is no effect and 100 is complete control)
Method in brief: as §2

[21] = 125 g ai/ha, visual rating about 10 d after treatment
[22] = 31 g ai/ha, 0 is no effect, 100 is complete control

CN1C[C@H](c2ccc3c(c2)OC(F)(F)O3)[C@@H](C(=O)Nc2cnccc2C(F)(F)F)C1=O [Compound 1354]
60%: pest or weed control at 125 g/ha [1, 21]
80%: pest or weed control at 125 g/ha ([12]; 125 g ai/ha, 0 to 100 scale (0 no effect, 100 complete control), read-out: Plant response rating, Barnyardgrass)
40%: pest or weed control at 125 g/ha [7, 21]
30%: pest or weed control at 31 g/ha ([11]; 31 g ai/ha, 0 to 100 scale where 0 is no effect and 100 is complete control, read-out: Foxtail, Giant plant response rating)
0%: pest or weed control at 31 g/ha [1, 22] | pest or weed control at 125 g/ha [2, 21] | pest or weed control at 31 g/ha [2, 22] | pest or weed control at 31 g/ha ([3]; 31 g ai/ha, 0 is no effect, 100 is complete control, read-out: Barnyardgrass plant response rating (0 to 100 scale)) | pest or weed control at 31 g/ha [4, 22] | plant injury at 125 g/ha [5, 21] | plant injury at 31 g/ha [5, 22] | pest or weed control at 125 g/ha [6, 21] | pest or weed control at 31 g/ha [6, 22] | pest or weed control at 125 g/ha [8, 21] | pest or weed control at 31 g/ha [8, 22] | plant injury at 125 g/ha [9, 21] | plant injury at 31 g/ha [9, 22] | pest or weed control at 125 g/ha [10, 21] | pest or weed control at 31 g/ha [10, 22] | pest or weed control at 31 g/ha ([12]; 31 g ai/ha, 0 to 100 scale where 0 is no effect and 100 is complete control, read-out: Barnyardgrass plant response rating) | pest or weed control at 31 g/ha ([13]; 31 g ai/ha, 0 to 100 scale where 0 is no effect and 100 is complete control, read-out: Kochia plant response rating) | pest or weed control at 31 g/ha ([14]; 31 g ai/ha, 0 to 100 scale where 0 is no effect and 100 is complete control, read-out: Pigweed plant response rating) | pest or weed control at 125 g/ha ([15]; 125 g ai/ha, 0 to 100 scale (0 no effect, 100 complete control), read-out: Plant response rating, Ragweed) | pest or weed control at 31 g/ha ([16]; 31 g ai/ha, 0 to 100 scale where 0 is no effect and 100 is complete control, read-out: Ryegrass, Italian plant response rating) | pest or weed control at 250 g/ha [17] | pest or weed control at 250 g/ha [18] | pest or weed control at 250 g/ha [19] | pest or weed control at 250 g/ha [20]
100%: pest or weed control at 125 g/ha ([11]; 125 g ai/ha, 0 to 100 scale (0 no effect, 100 complete control), read-out: Plant response rating, Foxtail, Giant)
20%: pest or weed control at 125 g/ha ([3]; 125 g ai/ha, visual rating about 10 d after treatment, read-out: Barnyardgrass plant response rating (0 to 100 scale, 0 no effect, 100 complete control)) | pest or weed control at 125 g/ha [4, 21] | pest or weed control at 31 g/ha [7, 22] | pest or weed control at 125 g/ha ([13]; 125 g ai/ha, 0 to 100 scale (0 no effect, 100 complete control), read-out: Plant response rating, Kochia) | pest or weed control at 125 g/ha ([14]; 125 g ai/ha, 0 to 100 scale (0 no effect, 100 complete control), read-out: Plant response rating, Pigweed) | pest or weed control at 31 g/ha ([15]; 31 g ai/ha, 0 to 100 scale where 0 is no effect and 100 is complete control, read-out: Ragweed plant response rating) | pest or weed control at 125 g/ha ([16]; 125 g ai/ha, 0 to 100 scale (0 no effect, 100 complete control), read-out: Plant response rating, Ryegrass, Italian)
